Assay results taken from patent publication US20060111396A1, “4-Phenyl substituted tetrahydroisoquinolines and use thereof to block reuptake of norepinephrine, dopamine and serotonin” (AMR Technology, Inc., priority 2004, published 2006).
Values joined by “and” are separate entries in the source; they are usually repeats but may differ in a detail not shown here. Equal entries are not always repeated. Structures can show the parent of a compound that is named as a salt.

Test system: not given
Conditions: not given

| SMILES | melting point |
| --- | --- |
| CN1Cc2ccccc2C(c2cc(F)cc(F)c2)C1 (stereo not drawn) (as salt: HCl) | 230 to 233 °C and 230 to 235 °C |
| CN1Cc2cc(C(F)(F)F)ccc2C(c2ccccc2)C1 (stereo not drawn) | 257 to 275 °C |
| CNCc1ccc2c(c1F)CN(C)CC2c1ccccc1 (stereo not drawn) (as salt: HCl) | 185 to 205 °C |
| Cc1ccc2c(c1O)CN(C)CC2c1ccccc1 (stereo not drawn) | 260 to 261 °C |
| FCc1ccc2c(c1CF)CN(CF)CC2c1ccccc1 (stereo not drawn) | 108 to 113 °C |
| CNCc1cccc2c1CN(C)CC2c1ccccc1 (stereo not drawn) | 278 to 282 °C |
| CN1Cc2cc(OC(F)(F)F)ccc2C(c2ccccc2)C1 (stereo not drawn) | 150 to 151 °C (dec.) |
| Cc1c(F)ccc2c1CN(C)CC2c1ccccc1 (stereo not drawn) | 185 to 186 °C |
| CN1Cc2cc(Oc3ccccc3)ccc2C(c2ccccc2)C1 (stereo not drawn) | 175 to 176 °C (dec.) |
| CN1Cc2cc(CO)ccc2C(c2ccccc2)C1 (stereo not drawn) (as salt: HCl) | 237 to 240 °C (dec.) |
| CN1Cc2cc(OCc3ccccc3)ccc2C(c2ccccc2)C1 (stereo not drawn) | 155 to 156 °C |
| Cc1ccc2c(c1)C(C)N(C)CC2c1ccccc1 (stereo not drawn) | 87 to 89 °C |
| Cc1ccc2c(c1)CN(C)CC2c1ccc(F)c(C)c1 (stereo not drawn) | 174 to 175 °C |
| Cc1ccc2c(c1F)CN(C)CC2c1ccccc1 (stereo not drawn) (as salt: hydrochloride) | 215 to 216 °C |
| CN1Cc2c(CO)cccc2C(c2ccccc2)C1 (stereo not drawn) | 144 to 146 °C |
| COc1c(C)ccc2c1CN(C)CC2c1ccccc1 (stereo not drawn) | 130 to 131 °C |
| Cc1cc(F)c2c(c1)C(C)N(C)C(F)C2c1ccccc1 (stereo not drawn) (as salt: HCl) | 194 to 197 °C (dec.) |

Test system: dopamine transporter protein over the norepinephrine transporter protein
Conditions: selectivity for dopamine transporter protein over norepinephrine transporter protein; cited from earlier work

| SMILES | DAT/NET Ki ratio |
| --- | --- |
| COC(=O)C(c1ccccc1)C1CCCCN1 (stereo not drawn) [Methylphenidate] | 0.1 |
